The results in this text go back to PubChem BioAssay (NCI).

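Cultured in 96-well plates, cells were exposed to test compound for 48 hours across five concentrations. TGI: concentration producing complete growth inhibition.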

Test systems include 786-0 renal; CAKI-1 renal; DU-145 prostate; HS 578T breast; HT29 colon; M14 melanoma; MDA-MB-231 breast; MDA-N; NCI-H23 lung; SF-268 CNS; SF-295 CNS; SN12C renal; UO-31 renal.
Common to all, as to assay: growth of human tumour cells (NCI), 48 h

Turning to `Cc1cc(-c2nc3cc(F)c(F)cc3s2)ccc1N`, the TGI in the assay with 786-0 renal, in the assay on CAKI-1 renal, in the assay on DU-145 prostate, with HS 578T breast, in the assay on HT29 colon and in the assay with M14 melanoma was over 100 µM each time. For the same molecule, the TGI in the assay with MDA-MB-231 breast is over 100 µM; in the assay on MDA-N, over 100 µM; with NCI-H23 lung it was over 100 µM; in the assay on SF-268 CNS, over 100 µM; with SF-295 CNS it was over 82.9 µM; with SN12C renal it was over 100 µM. Further, the TGI with UO-31 renal was over 100 µM.
Take `CC1Cc2cc(O)ccc2C2[C@@H]1C1CC[C@H](O)[C@@]1(C)C[C@@H]2O[N+](=O)[O-]` (some centres undefined): the TGI in the assay on 786-0 renal is 65.3 µM; in the assay on CAKI-1 renal it was 73.6 µM; with DU-145 prostate, 76.3 µM; with HS 578T breast, 22.3 µM; in the assay with HT29 colon, 31.1 µM; with M14 melanoma, 64.1 µM. Besides, the TGI with MDA-MB-231 breast was 85.8 µM; with MDA-N, 6.07 µM; with NCI-H23 lung, 67.8 µM; with SF-268 CNS it was over 93.1 µM; in the assay on SF-295 CNS, 39.2 µM; with SN12C renal it was over 94.4 µM. This molecule had a TGI in the assay on UO-31 renal of 63.7 µM.
On to `Cn1cnc([N+](=O)[O-])c1Sc1nc(N)nc2c1ncn2Cc1ccccc1`, for which the TGI is 68.2 µM with 786-0 renal; 31.1 µM in the assay with CAKI-1 renal; over 100 µM in the assay with DU-145 prostate; 86.5 µM in the assay with HS 578T breast; 67.8 µM in the assay on HT29 colon; 69 µM in the assay with M14 melanoma. In addition, the TGI in the assay on MDA-MB-231 breast is 41.3 µM; in the assay with MDA-N, 44.9 µM; in the assay with NCI-H23 lung, 36.9 µM; in the assay on SF-268 CNS, 44.6 µM; with SF-295 CNS it was over 100 µM; with SN12C renal it was 37.3 µM. In addition, the TGI in the assay on UO-31 renal was found to be 34.2 µM.
For the molecule `CCc1n[nH]c(=O)n1NC(=O)/C=C\C(=O)O`, the TGI with 786-0 renal, in the assay on CAKI-1 renal, in the assay on DU-145 prostate, in the assay on HS 578T breast, in the assay with HT29 colon and in the assay with M14 melanoma was over 100 µM throughout. The TGI in the assay with MDA-MB-231 breast, in the assay on MDA-N, with NCI-H23 lung, in the assay with SF-268 CNS, in the assay with SF-295 CNS and in the assay on SN12C renal was over 100 µM throughout.
As for `CC1OC(OC2CC(O)(C(=O)CO)Cc3c(O)c4c(c(O)c32)C(=O)c2ccccc2C4=O)CC(N)C1O` (centres undefined), the TGI in the assay with CAKI-1 renal was 0.088 µM; in the assay with DU-145 prostate it was 0.0836 µM; in the assay with HS 578T breast, 0.113 µM; with HT29 colon it was 0.493 µM; in the assay on M14 melanoma, 0.229 µM; with MDA-MB-231 breast, 7.4 µM. Besides, the TGI in the assay with MDA-N came to 0.613 µM; in the assay with NCI-H23 lung, 0.203 µM; with SF-268 CNS it was 0.549 µM; in the assay on SF-295 CNS it was 0.0818 µM; in the assay on SN12C renal it was 0.887 µM; in the assay on UO-31 renal, 0.267 µM.
For the molecule `CCOC1SC(SC)=NN1C(=O)C(OC(C)=O)C(OC(C)=O)C(OC(C)=O)C(OC(C)=O)C(=O)N1N=C(SC)SC1OCC` (centres undefined), the TGI in the assay with 786-0 renal is over 100 µM; with CAKI-1 renal, over 100 µM; in the assay on DU-145 prostate, over 100 µM; in the assay with HS 578T breast, 96.2 µM; in the assay with HT29 colon it was over 100 µM; in the assay on M14 melanoma, over 100 µM. The TGI in the assay with MDA-MB-231 breast, in the assay on MDA-N, in the assay with NCI-H23 lung, with SF-268 CNS, in the assay with SF-295 CNS and in the assay with SN12C renal was over 100 µM in each case. The molecule also yielded a TGI in the assay on UO-31 renal of over 100 µM.
`C=C(C(=O)O)[C@@H]1C[C@@H]2O[C@H]1CC(C)=CCC/C(C)=C/CC[C@@]2(C)O`: the TGI with 786-0 renal, with CAKI-1 renal, in the assay on DU-145 prostate, in the assay with HS 578T breast, in the assay with M14 melanoma and in the assay on MDA-MB-231 breast was over 100 µM throughout. In addition, the TGI in the assay on MDA-N, with SF-268 CNS, with SF-295 CNS, in the assay on SN12C renal and in the assay with UO-31 renal was over 100 µM throughout.
For `CC1(C)OC(=S)N(c2ccccc2)C12C=Cc1cc3ccccc3cc1O2` (centres undefined), the TGI with 786-0 renal, in the assay with CAKI-1 renal, in the assay with DU-145 prostate, in the assay on HS 578T breast, in the assay with HT29 colon and in the assay on M14 melanoma was over 100 µM throughout. Besides, the TGI in the assay on MDA-MB-231 breast, in the assay with MDA-N, in the assay with NCI-H23 lung, in the assay on SF-268 CNS, in the assay on SF-295 CNS and with SN12C renal was over 100 µM throughout. Besides, the TGI in the assay with UO-31 renal was over 100 µM.
As to `CCOP(C)(=O)C(Nc1ccc(F)cc1)c1ccc(F)cc1` (centres undefined), the TGI in the assay with 786-0 renal, with CAKI-1 renal, in the assay with DU-145 prostate, in the assay on HS 578T breast, in the assay with HT29 colon and in the assay with M14 melanoma was over 100 µM in each case. Besides, the TGI in the assay with MDA-MB-231 breast, in the assay on MDA-N, in the assay with NCI-H23 lung, with SF-268 CNS, in the assay with SF-295 CNS and in the assay on SN12C renal was over 100 µM in each case. Also, in the assay with UO-31 renal, the TGI is over 100 µM.
Take `CCN(CC)C1=Nc2ccccc2-n2c(C)cnc2C1`: the TGI in the assay with 786-0 renal, with CAKI-1 renal, in the assay on DU-145 prostate, with HS 578T breast, in the assay on HT29 colon and in the assay with M14 melanoma was over 100 µM in each case. The TGI with MDA-MB-231 breast, with MDA-N, in the assay with NCI-H23 lung, in the assay with SF-268 CNS, in the assay with SF-295 CNS and in the assay on SN12C renal was over 100 µM in each case. This molecule yielded a TGI in the assay with UO-31 renal of over 100 µM.
Consider `Cc1ccc(C)c(NC(=O)C(Cc2c[nH]c3ccccc23)NC(=O)OCc2ccccc2)c1` (centres undefined), for which the TGI in the assay with 786-0 renal is 39.3 µM; in the assay on CAKI-1 renal, 56.7 µM; in the assay on DU-145 prostate it was 33.7 µM; with HS 578T breast it was over 100 µM; in the assay with HT29 colon it was 45.1 µM; in the assay with M14 melanoma, 34.7 µM. Besides, the TGI is 47.4 µM with MDA-MB-231 breast; over 100 µM in the assay on MDA-N; 68.4 µM in the assay with NCI-H23 lung; over 100 µM with SF-268 CNS; over 100 µM with SF-295 CNS; over 100 µM in the assay with SN12C renal. The same molecule yielded a TGI in the assay on UO-31 renal of 34.9 µM.
